Test results from patent US6465654B2, “Process for preparing 1-substituted, 2-substituted 1H-imidazo[4, 5-c]quinoline-4-amines” (3M Innovative Properties Company, priority 1991, dated 2002).

Columns and labels:
interferon-α [1] = test: Interferon-α induction in human cells, PBM; format: cell-based; conditions: 24 hours
interferon [2] = test: Interferon induction in mice; format: in vivo; conditions: mouse serum
In short: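 Mouse serum collected at 1, 2 and 4 h (separate groups), pooled, stored at −70° C, then assayed as for human-cell interferon. Values in α/β reference units/mL against a mouse MU-1-IF standard; "<" marks levels below assay sensitivity.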

MC-26 colon tumor cells = test: Inhibition of MC-26 tumors in mice, 14 day lung colony count; format: in vivo; conditions: lung colonies day 14, 4×10^4 MC-26 cells i.v., oral 30 mg/kg on days 3-7 and 10-14; control 385 ± 31
Procedure: The mice are sacrificed 14 days later. […] Five mice are in each treatment group and comparisons are made to controls. […] The mice in the control groups were dosed orally with saline (10 mL/kg) on days 3, 4, 5, 6, and 7, and with water (10 mL/kg) on days 10, 11, 12, 13, and 14.

[3] = tested on: vesicular stomatitis virus (VSV); test: microbe, parasite or virus in culture; format: cell-based; conditions: Vesicular stomatitis virus, read-out: VSV Yield Inhibition
[4] = tested on: Herpes simplex virus Type II strain 333; test: Antiviral activity in guinea pigs infected with Herpes simplex virus Type II (lesion inhibition); format: in vivo; conditions: oral once daily for four days
Description: Female Hartley guinea pigs weighing 200 to 250 g are anesthetized with methoxyflurane (available under the […] from Pitman-Moore, Inc., Washington Crossing, N.J.), after which the vaginal area is swabbed with a dry cotton swab. The guinea pigs are then infected intravaginally with a cotton swab saturated with Herpes simplex virus Type II strain 333 (1×10^5 plaque forming units/mL). Guinea pigs are assigned to groups of 7 animals; one group for each treatment and one to serve as a control (vehicle treated). The compounds of the invention are formulated in water containing 5% Tween 80 (a polyoxyethylene sorbitan monooleate available from Aldrich Chemical Company, Inc., Milwaukee, Wis.). The, guinea pigs are treated orally once daily for four consecutive days starting 24 hours after infection. Antiviral activity is evaluated by comparing lesion development in compound-treated versus vehicle-treated guinea pigs. […] The maximum lesion score of each guinea pig is used to calculate the percentage lesion inhibition. The percentage lesion inhibition is calculated as follows: […]

interferon [5] = test: Interferon induction in guinea pigs (serum interferon titer); format: in vivo; conditions: guinea pig serum 24 hours after initial oral dose
Description: Female Hartley guinea pigs weighing 200 to 250 g are anesthetized with methoxyflurane (available under the […] from Pitman-Moore, Inc., Washington Crossing, N.J.), after which the vaginal area is swabbed with a dry cotton swab. The guinea pigs are then infected intravaginally with a cotton swab saturated with Herpes simplex virus Type II strain 333 (1×10^5 plaque forming units/mL). Guinea pigs are assigned to groups of 7 animals; one group for each treatment and one to serve as a control (vehicle treated). The compounds of the invention are formulated in water containing 5% Tween 80 (a polyoxyethylene sorbitan monooleate available from Aldrich Chemical Company, Inc., Milwaukee, Wis.). The, guinea pigs are treated orally once daily for four consecutive days starting 24 hours after infection. Twenty-four hours after the initial dose of test compound has been administered, blood is obtained from 3 guinea pigs from each treatment group by cardiac puncture of methoxyflurane anesthetized animals. Blood is pooled and allowed to clot at room temperature. After low speed centrifugation, serum is collected and stored at -70° C. until analysis. Interferon levels in the guinea pig serum are determined in a standard microtiter assay using transformed guinea pig cells (ATCC CRL 1405). The interferon assay is done in 96 well microtiter plates. Confluent monolayers of transformed guinea pig cells are treated with dilutions of guinea pig serum made with medium 199 (GIBCO, Grand Island, N.Y.). The cell and serum dilutions are incubated at 37° C. overnight. The following day, the medium and serum are removed and about 10 plaque forming units of Mengovirus are added to each well. Controls consist of wells that receive no guinea pig serum (virus positive control) and wells that receive no virus (virus negative control). Cells and virus are incubated for 2 to 3 days at 37° C. before quantifying for viral cytopathic effect. The viral cytopathic effect is quantified by staining with 0.05% crystal violet followed by spectrophotometric absorbance measurements. The titer of interferon in serum is expressed as units/mL and is the reciprocal of the highest dilution that protects cells from virus.

interferon-α [6] = test: Interferon-α induction in human cells, diluted whole blood; format: cell-based; conditions: 24 hours

Compound | Interferon-α induction (interferon-α [1]; dose concentration 0.01 μg/mL) | Interferon-α induction (interferon-α [1]; dose concentration 0.05 μg/mL) | Interferon-α induction (interferon-α [1]; dose concentration 0.10 μg/mL) | Interferon-α induction (interferon-α [1]; dose concentration 0.50 μg/mL) | Interferon-α induction (interferon-α [1]; dose concentration 1.0 μg/mL) | Interferon-α induction (interferon-α [1]; dose concentration 5.0 μg/mL) | Interferon induction in mice (interferon [2]; oral 0.3 mg/kg, 1 hr) | Interferon induction in mice (interferon [2]; oral 0.3 mg/kg, 2 hr) | Interferon induction in mice (interferon [2]; oral 0.3 mg/kg, 4 hr) | Interferon induction in mice (interferon [2]; oral 1 mg/kg, 1 hr) [Reference Units/mL] | Interferon induction in mice (interferon [2]; oral 1 mg/kg, 2 hr) [Reference Units/mL] | Interferon induction in mice (interferon [2]; oral 1 mg/kg, 4 hr) | Interferon induction in mice (interferon [2]; oral 3 mg/kg, 1 hr) [Reference Units/mL] | Interferon induction in mice (interferon [2]; oral 3 mg/kg, 2 hr) [Reference Units/mL] | Interferon induction in mice (interferon [2]; oral 3 mg/kg, 4 hr) [Reference Units/mL] | Interferon induction in mice (interferon [2]; oral 10 mg/kg, 1 hr) [Reference Units/mL] | Interferon induction in mice (interferon [2]; oral 10 mg/kg, 2 hr) | Interferon induction in mice (interferon [2]; oral 10 mg/kg, 4 hr) | Number of Colonies (MC-26 colon tumor cells) | further results
CSCc1nc2c(N)nc3ccccc3c2n1Cc1ccccc1 [Example 31, 2-Methylthiomethyl-1-phenylmethyl-1H-imidazo-[4,5-c]quinolin-4-amine] | <4 α Reference Units/mL | 18 α Reference Units/mL | 2500 α Reference Units/mL | 370 α Reference Units/mL | 280 α Reference Units/mL | 370 α Reference Units/mL | <61 Reference Units/mL | <61 Reference Units/mL | <61 Reference Units/mL | <61 | 140 | ≦61 Reference Units/mL | 420 | 420 | 320 | 960 | 5000 Reference Units/mL | 550 Reference Units/mL | 221 ± 37 | log reduction at 1 µg/mL [3]: 5; log reduction at 5 µg/mL [3]: 5; log reduction at 10 µg/mL [3]: 6
CC(C)Cn1c(CN2CCOCC2)nc2c(N)nc3ccccc3c21 [Example 12, 1-(2-Methylproyl)-2-morpholinomethyl-1H-imidazo-[4,5-c]quinolin-4-amine] |  |  |  |  |  |  |  |  |  | 94 | 160 | <18 Reference Units/mL | 54 | 40 | <18 | 850 | 850 Reference Units/mL | 40 Reference Units/mL | 149 ± 21 | % Lesion Inhibition ([4]; dose 0.5 mg/kg): 82%; % Lesion Inhibition ([4]; dose 2 mg/kg): 100%; Reference Units/mL (interferon in serum) (interferon [5]; 0.5 mg/kg): >12,800 Units/mL; Reference Units/mL (interferon in serum) (interferon [5]; 2 mg/kg): >12,800 Units/mL; Interferon-α induction (interferon-α [6]; dose concentration 0.10 μg/mL): <1.8 α Reference Units/mL; Interferon-α induction (interferon-α [6]; dose concentration 0.50 μg/mL): 37 α Reference Units/mL; Interferon-α induction (interferon-α [6]; dose concentration 1.0 μg/mL): 140 α Reference Units/mL; Interferon-α induction (interferon-α [6]; dose concentration 5.0 μg/mL): 330 α Reference Units/mL; Interferon induction in mice (interferon [2]; oral 30 mg/kg, 1 hr): 850 Reference Units/mL; Interferon induction in mice (interferon [2]; oral 30 mg/kg, 2 hr): 5800 Reference Units/mL; Interferon induction in mice (interferon [2]; oral 30 mg/kg, 4 hr): 40 Reference Units/mL
COCc1nc2c(N)nc3ccccc3c2n1CC(C)C [Example 34, 2-Methoxymethyl-1-(2-methylpropyl)-1H-imidazo[4,5-c]quinolin-4-amine] | <4 α Reference Units/mL | <4 α Reference Units/mL | 1600 α Reference Units/mL | 550 α Reference Units/mL | 180 α Reference Units/mL | 200 α Reference Units/mL | ≦61 Reference Units/mL | ≦61 Reference Units/mL | ≦61 Reference Units/mL | 140 | 320 | ≦61 Reference Units/mL | 420 | 420 | 140 | 1100 | 1100 Reference Units/mL | 180 Reference Units/mL | 196 ± 20 | 
COCCn1c(COC)nc2c(N)nc3ccccc3c21 [Example 37, 1-(2-Methoxyethyl)-2-methoxymethyl-1H-imidazo[4,5-c]quinolin-4-amine] |  |  | <4 α Reference Units/mL | 2500 α Reference Units/mL | 2500 α Reference Units/mL | 210 α Reference Units/mL | <120 Reference Units/mL | <120 Reference Units/mL | <120 Reference Units/mL | <120 | <120 | <120 Reference Units/mL | <120 | <120 | <120 | 270 | ≦270 Reference Units/mL | ≦270 Reference Units/mL | 123 ± 31 | 
